According to patent US9693556B2, “Herbicidal pyridazinone derivatives” (SYNGENTA LIMITED, priority 2011, dated 2017):

Columns and labels:
Type in all cases: in vivo
[1] = tested on: Amaranthus retoflexus (AMARE); experiment: Post-emergence herbicidal glasshouse test on Amaranthus retoflexus
Outline: (§1)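 Steps: sow seeds in standard soil; cultivate 1 d (pre-) or 8 d (post-emergence) at 24/16 °C, 14 h light, 65% humidity; spray 1000 g/h in acetone/water plus Tween 20; grow on, watering twice daily; score percentage damage after 13 d.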

Setaria faberi (SETFA) [2] = experiment: Pre-emergence herbicidal glasshouse test on Setaria faberi
Outline: as §1

[3] = tested on: Amaranthus retoflexus (AMARE); experiment: Pre-emergence herbicidal glasshouse test on Amaranthus retoflexus
Outline: as §1

[4] = tested on: Ipomoea hederacea (IPOHE); experiment: Pre-emergence herbicidal glasshouse test on Ipomoea hederacea
Outline: as §1

[5] = tested on: Echinochloa crus-galli (ECHCG); experiment: Pre-emergence herbicidal glasshouse test on Echinochloa crus-galli
Outline: as §1

[6] = tested on: Alopecurus myosuroides (ALOMY); experiment: Pre-emergence herbicidal glasshouse test on Alopecurus myosuroides
Outline: as §1

Solanum nigrum (SOLNI) [7] = experiment: Pre-emergence herbicidal glasshouse test on Solanum nigrum
Outline: as §1

Solanum nigrum (SOLNI) [8] = experiment: Post-emergence herbicidal glasshouse test on Solanum nigrum
Outline: as §1

[9] = tested on: Ipomoea hederacea (IPOHE); experiment: Post-emergence herbicidal glasshouse test on Ipomoea hederacea
Outline: as §1

[10] = tested on: Alopecurus myosuroides (ALOMY); experiment: Post-emergence herbicidal glasshouse test on Alopecurus myosuroides
Outline: as §1

[11] = tested on: Echinochloa crus-galli (ECHCG); experiment: Post-emergence herbicidal glasshouse test on Echinochloa crus-galli
Outline: as §1

Setaria faberi (SETFA) [12] = experiment: Post-emergence herbicidal glasshouse test on Setaria faberi
Outline: as §1

[13] = post-emergence, 1000 g/h, evaluated after 13 days, five point scale
[14] = pre-emergence, 1000 g/h, evaluated after 13 days, five point scale
[15] = post-emergence, 1000 g/h, evaluated after 13 days
[16] = pre-emergence, 1000 g/h, evaluated after 13 days

Row | Compound | POST Application AMARE herbicidal damage (five point scale) [1, 15] | PRE Application SETFA herbicidal damage (five point scale) (Setaria faberi (SETFA) [2]; [16]) | PRE Application AMARE herbicidal damage (five point scale) [3, 16] | PRE Application IPOHE herbicidal damage (five point scale) [4, 16] | PRE Application ECHCG herbicidal damage (five point scale) [5, 16] | PRE Application ALOMY herbicidal damage (five point scale) [6, 16] | PRE Application SOLNI herbicidal damage (five point scale) (Solanum nigrum (SOLNI) [7]; [16]) | POST Application SOLNI herbicidal damage (five point scale) (Solanum nigrum (SOLNI) [8]; [15]) | POST Application IPOHE herbicidal damage (five point scale) [9, 15] | POST Application ALOMY herbicidal damage (five point scale) [10, 15] | POST Application ECHCG herbicidal damage (five point scale) [11, 15] | POST Application SETFA herbicidal damage (five point scale) (Setaria faberi (SETFA) [12]; [15]) | other results
1 | Cc1ccc2cc(-c3cnn(C)c(=O)c3O)c(C(F)(F)F)nc2n1 [Compound 1.154] | – | – | – | – | – | – | – | – | – | – | – | – | herbicidal damage, POST Application AMARE [1, 13]: 5 (5=80-100% damage); herbicidal damage, PRE Application SETFA (Setaria faberi (SETFA) [2]; [14]): 2 (2=20-39% damage); herbicidal damage, PRE Application AMARE [3, 14]: 5 (5=80-100% damage); herbicidal damage, PRE Application IPOHE [4, 14]: 5 (5=80-100% damage); herbicidal damage, PRE Application ECHCG [5, 14]: 5 (5=80-100% damage); herbicidal damage, PRE Application ALOMY [6, 14]: 2 (2=20-39% damage); herbicidal damage, PRE Application SOLNI (Solanum nigrum (SOLNI) [7]; [14]): 2 (2=20-39% damage); herbicidal damage, POST Application SOLNI (Solanum nigrum (SOLNI) [8]; [13]): 5 (5=80-100% damage); herbicidal damage, POST Application IPOHE [9, 13]: 5 (5=80-100% damage); herbicidal damage, POST Application ALOMY [10, 13]: 4 (4=60-79% damage); herbicidal damage, POST Application ECHCG [11, 13]: 5 (5=80-100% damage); herbicidal damage, POST Application SETFA (Setaria faberi (SETFA) [12]; [13]): 5 (5=80-100% damage)
2 | CSc1ccn(-c2cnn(C)c(=O)c2O)c(=O)c1 [Compound 1.027] | 5 (5=80-100% damage) | 3 (3=40-59% damage) | 5 (5=80-100% damage) | 1 (1=0-19% damage) | 5 (5=80-100% damage) | 1 (1=0-19% damage) | 4 (4=60-79% damage) | 5 (5=80-100% damage) | 5 (5=80-100% damage) | 1 (1=0-19% damage) | 5 (5=80-100% damage) | 5 (5=80-100% damage) | –
3 | Cn1ncc(-c2cnc(-c3cccc(F)c3)n(C3CCCCC3)c2=O)c(O)c1=O [Compound 10.003, 3-cyclohexyl-2-(3-fluorophenyl)-5-(5-hydroxy-1-methyl-6-oxo-pyridazin-4-yl)pyrimidin-4-one] | – | – | – | – | – | – | – | – | – | – | – | – | POST Application AMARE ([1]; post-emergence application, Amaranthus retoflexus, damage score 1-5): 5 (5=80-100% damage); PRE Application SETFA (Setaria faberi (SETFA) [2]; pre-emergence application, Setaria faberi, damage score 1-5): 1 (1=0-19% damage); PRE Application AMARE ([3]; pre-emergence application, Amaranthus retoflexus, damage score 1-5): 5 (5=80-100% damage); PRE Application IPOHE ([4]; pre-emergence application, Ipomoea hederacea, damage score 1-5): 1 (1=0-19% damage); PRE Application ECHCG ([5]; pre-emergence application, Echinochloa crus-galli, damage score 1-5): 1 (1=0-19% damage); PRE Application ALOMY ([6]; pre-emergence application, Alopecurus myosuroides, damage score 1-5): 1 (1=0-19% damage); PRE Application SOLNI (Solanum nigrum (SOLNI) [7]; pre-emergence application, Solanum nigrum, damage score 1-5): 1 (1=0-19% damage); POST Application SOLNI (Solanum nigrum (SOLNI) [8]; post-emergence application, Solanum nigrum, damage score 1-5): 5 (5=80-100% damage); POST Application IPOHE ([9]; post-emergence application, Ipomoea hederacea, damage score 1-5): 4 (4=60-79% damage); POST Application ALOMY ([10]; post-emergence application, Alopecurus myosuroides, damage score 1-5): 1 (1=0-19% damage); POST Application ECHCG ([11]; post-emergence application, Echinochloa crus-galli, damage score 1-5): 5 (5=80-100% damage); POST Application SETFA (Setaria faberi (SETFA) [12]; post-emergence application, Setaria faberi, damage score 1-5): 4 (4=60-79% damage)
4 | Cc1nc(C(C)F)ccc1-c1cnn(C)c(=O)c1O (stereo not drawn) [Compound 1.068] | 5 (5=80-100% damage) | 2 (2=20-39% damage) | 4 (4=60-79% damage) | 3 (3=40-59% damage) | 5 (5=80-100% damage) | 2 (2=20-39% damage) | 4 (4=60-79% damage) | 5 (5=80-100% damage) | 5 (5=80-100% damage) | 3 (3=40-59% damage) | 5 (5=80-100% damage) | 3 (3=40-59% damage) | –
5 | Cn1ncc(-c2cc(Cl)c(Cl)cc2Cl)c(O)c1=O [Compound 1.089] | 1 (1=0-19% damage) | 1 (1=0-19% damage) | 1 (1=0-19% damage) | 1 (1=0-19% damage) | 1 (1=0-19% damage) | 1 (1=0-19% damage) | 1 (1=0-19% damage) | 1 (1=0-19% damage) | 1 (1=0-19% damage) | 1 (1=0-19% damage) | 1 (1=0-19% damage) | 1 (1=0-19% damage) | –
6 | Cn1ncc(-c2ccccc2S(=O)(=O)C(F)(F)F)c(O)c1=O [Compound 1.056] | 5 (5=80-100% damage) | 1 (1=0-19% damage) | 5 (5=80-100% damage) | 1 (1=0-19% damage) | 5 (5=80-100% damage) | 5 (5=80-100% damage) | 4 (4=60-79% damage) | 5 (5=80-100% damage) | 5 (5=80-100% damage) | 5 (5=80-100% damage) | 5 (5=80-100% damage) | 5 (5=80-100% damage) | –
7 | COc1ccc(-c2cnn(C)c(=O)c2O)c(Cl)c1 [Compound 1.103] | 1 (1=0-19% damage) | 1 (1=0-19% damage) | 1 (1=0-19% damage) | 1 (1=0-19% damage) | 1 (1=0-19% damage) | 1 (1=0-19% damage) | 1 (1=0-19% damage) | 2 (2=20-39% damage) | 1 (1=0-19% damage) | 1 (1=0-19% damage) | 1 (1=0-19% damage) | 1 (1=0-19% damage) | –
8 | Cn1ncc(-c2ccccc2C(F)(F)F)c(O)c1=O [Compound 1.116] | 4 (4=60-79% damage) | 2 (2=20-39% damage) | 5 (5=80-100% damage) | 1 (1=0-19% damage) | 1 (1=0-19% damage) | 2 (2=20-39% damage) | 3 (3=40-59% damage) | 5 (5=80-100% damage) | 4 (4=60-79% damage) | 1 (1=0-19% damage) | 2 (2=20-39% damage) | 2 (2=20-39% damage) | –
9 | Cc1ccc(-c2cnn(C)c(=O)c2O)c(Cl)c1 [Compound 1.098] | 2 (2=20-39% damage) | 1 (1=0-19% damage) | 1 (1=0-19% damage) | 1 (1=0-19% damage) | 1 (1=0-19% damage) | 1 (1=0-19% damage) | 1 (1=0-19% damage) | 3 (3=40-59% damage) | 2 (2=20-39% damage) | 1 (1=0-19% damage) | 1 (1=0-19% damage) | 1 (1=0-19% damage) | –
10 | Cc1c(-c2cnn(CC3CC3)c(=O)c2O)ccc(S(C)(=O)=O)c1C1=NOCC1 [Compound 1.120] | 5 (5=80-100% damage) | 4 (4=60-79% damage) | 5 (5=80-100% damage) | 4 (4=60-79% damage) | 5 (5=80-100% damage) | 3 (3=40-59% damage) | 4 (4=60-79% damage) | 5 (5=80-100% damage) | 5 (5=80-100% damage) | 5 (5=80-100% damage) | 5 (5=80-100% damage) | 5 (5=80-100% damage) | –
